In general, pIC50 refers to the negative decadic logarithm of the IC50, by convention in mol/L. A lower pIC50 goes with a large IC50.

pIC50: −log10 of the molar value.

Assay [1] deals with T1, collagenase obtained from a culture of human synovial fibroblasts (Homo sapiens, UniProt P03956).
T1 construct: endogenous in cells; host or cells: culture of human synovial fibroblasts (conditioned medium)
T1 sequence (P03956 100-469): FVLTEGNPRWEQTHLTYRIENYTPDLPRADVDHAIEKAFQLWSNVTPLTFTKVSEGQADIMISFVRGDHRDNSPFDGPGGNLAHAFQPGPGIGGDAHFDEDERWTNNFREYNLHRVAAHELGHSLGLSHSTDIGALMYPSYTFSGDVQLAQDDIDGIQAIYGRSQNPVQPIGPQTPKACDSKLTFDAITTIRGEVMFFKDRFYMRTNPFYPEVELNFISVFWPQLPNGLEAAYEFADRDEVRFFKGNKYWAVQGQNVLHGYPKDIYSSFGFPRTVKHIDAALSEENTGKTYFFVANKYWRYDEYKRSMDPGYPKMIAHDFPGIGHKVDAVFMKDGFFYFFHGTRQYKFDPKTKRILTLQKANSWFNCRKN
Description: in vitro inhibition of collagenase (microtitre plate assay, 14C-acetylated collagen type I from rat tail tendons as substrate). The following applies: human synovial fibroblast collagenase, trypsin-activated; 14C-acetylated collagen type I substrate. Format: biochemical. On the procedure:
Collagenase activity was measured using ^14 C-acetylated collagen type I from rat tail tendons as the substrate and employing the microtitre plate assay method of Johnson-Wint, B. Anal. Biochem. (1980), 104, 175. The IC50 is that concentration of a compound of formula I of the invention in the enzyme digestion which reduces substrate cleavage and solubilization to 50% of that achieved by the enzyme alone.
The results obtained in the foregoing test with representative compounds of this invention are compiled in the Table I hereinafter: […]

In the next assay the test system is female rats. Description: in vivo type II collagen/Freund's incomplete adjuvant rat test: hind paw inflammation and radiological change. To be noted: 20 mg kg^-1 twice daily for 12 days via jugular vein catheter. On the procedure:
Groups of female rats received an intradermal injection into the shaved backs of 10×0.1 ml of an emulsion of type II collagen/Freund's incomplete adjuvant. Ten days later the test compound was administered twice daily at a dosage of 20 mg kg^-1 via indwelling jugular vein catheters; dosing was continued for 12 days. Groups of rats which received the intradermal injection, but which were not treated with test compounds, served as the control. The incidence of hind paw inflammation was assessed visually at intervals throughout the test and was expressed as the proportion of the group showing signs of erythema and/or swelling. Radiological change in the ankle region of the hind paws was assessed at the termination of the test and was quantified using an arbitrary scale of from 0=normal to 6=severe change, results being expressed as group means. Statistical analysis was performed using the Mann-Whitney "U" test.

The compound `CC(C)CC(CP(=O)(O)CNC(=O)[C@H](CC(C)C)NC(=O)[C@@H]1CCCN1C(=O)OCc1ccccc1)C(=O)N[C@@H](CC(C)C)C(=O)N[C@@H](C)C(=O)O` (single isomer, unassigned) [Compound A, N-[N-[(R or S)-2-[[[[[N-[1-[(benzyloxy)carbonyl]-L-prolyl]-L-leucyl]amino]methyl]hydroxyphosphinyl]methyl]-4-methylvaleryl]-L-leucyl]-L-alanine] had a pIC50 in assay [1] of 7.25. Regarding `CNC(=O)[C@H](CC(C)C)NC(=O)C(CC(C)C)CP(=O)(O)CN1C(=O)c2cccc(N)c2C1=O` (mixture of isomers) [Compound B, [(3-aminophthalimido)methyl][(RS)-4-methyl-2-[[(S)-3-methyl-1-(methylcarbamoyl)butyl]carbamoyl]pentyl]phosphinic acid], the pIC50 in assay [1] was 6.22. Same read-out and setting: with `CNC(=O)[C@H](CC(C)C)NC(=O)C(CC(C)C)CP(=O)(O)CN1C(=O)c2cccc3cccc(c23)C1=O` (stereo partly drawn) [Compound C, [(RS)-4-methyl-2-[[(S)-3-methyl-1-(methylcarbamoyl)butyl]carbamoyl]pentyl](1,8-naphthalendicarboximidomethyl)phosphinic acid] the figure was 6.80; with `CC(C)C[C@@H](CP(=O)(O)Cn1c(=O)[nH]c2ccccc2c1=O)C(=O)N[C@@H]1CCCCCCCCCCNC1=O` (single isomer, unassigned) [Compound E, [[1,4-dihydro-2,4-dioxo-3(2H)-quinazolinyl]methyl][(R or S)-4-methyl-2-[[(R or S)-2-oxo-3-azacyclotridecyl]carbamoyl]pentyl]phosphinic acid], 6.66. For `CC(C)CC(CP(=O)(O)CN1C(=O)c2cccc3cccc(c23)C1=O)C(=O)NC1CCCCCCCCCCNC1=O` (single isomer, unassigned) [Compound D, [(R or S)-4-methyl-2-[[(R or S)-2-oxo-3-azacyclotridecyl]carbamoyl]pentyl](1,8-naphthalenedicarboximidomethyl)phosphinic acid], the “Inflammation day 4” value in the assay with female rats (proportion of group showing erythema and/or swelling of hind paw, Control 8/11) is recorded as 3/12. In addition, the “Radiological scores, Tarsus” value in the assay on female rats (scale 0=normal to 6=severe change, group mean at termination, Control 1.75 ± 0.45) is reported as 0.64 ± 0.37. The “Radiological scores, Talus” value with female rats (scale 0=normal to 6=severe change, group mean at termination, Control 2.28 ± 0.53) is 0.86 ± 0.34. This compound showed a pIC50 in assay [1] of 6.96.

The values are drawn from US4885283A, “Phosphinic acid derivatives” (Hoffmann-La Roche Inc., priority 1986, dated 1989).
